From ChEMBL document CHEMBL5316348, “Targeting the Epidermal Growth Factor Receptor with Molecular Degraders: State-of-the-Art and Future Opportunities” (J Med Chem, 2023) come the findings set out here.

For data set [1], the system named is von Hippel-Lindau disease tumor suppressor/Epidermal growth factor receptor (Homo sapiens), P00533+P40337 [UNDEFINED MUTATION]. The data set is described as follows: Protac activity at VHL/EGFR deletion19 mutant in human HCC827 cells assessed as induction of protein degradation by measuring maximal efficacy incubated for 24 hrs by immunoblotting analysis relative to control. Type of data set: cell-based. Background: A western blot detects proteins with antibodies after separation by electrophoresis.
von Hippel-Lindau disease tumor suppressor/Epidermal growth factor receptor (Homo sapiens), P00533+P40337 [UNDEFINED MUTATION], sequence (P00533 whole entry, looked up, stated change not applied): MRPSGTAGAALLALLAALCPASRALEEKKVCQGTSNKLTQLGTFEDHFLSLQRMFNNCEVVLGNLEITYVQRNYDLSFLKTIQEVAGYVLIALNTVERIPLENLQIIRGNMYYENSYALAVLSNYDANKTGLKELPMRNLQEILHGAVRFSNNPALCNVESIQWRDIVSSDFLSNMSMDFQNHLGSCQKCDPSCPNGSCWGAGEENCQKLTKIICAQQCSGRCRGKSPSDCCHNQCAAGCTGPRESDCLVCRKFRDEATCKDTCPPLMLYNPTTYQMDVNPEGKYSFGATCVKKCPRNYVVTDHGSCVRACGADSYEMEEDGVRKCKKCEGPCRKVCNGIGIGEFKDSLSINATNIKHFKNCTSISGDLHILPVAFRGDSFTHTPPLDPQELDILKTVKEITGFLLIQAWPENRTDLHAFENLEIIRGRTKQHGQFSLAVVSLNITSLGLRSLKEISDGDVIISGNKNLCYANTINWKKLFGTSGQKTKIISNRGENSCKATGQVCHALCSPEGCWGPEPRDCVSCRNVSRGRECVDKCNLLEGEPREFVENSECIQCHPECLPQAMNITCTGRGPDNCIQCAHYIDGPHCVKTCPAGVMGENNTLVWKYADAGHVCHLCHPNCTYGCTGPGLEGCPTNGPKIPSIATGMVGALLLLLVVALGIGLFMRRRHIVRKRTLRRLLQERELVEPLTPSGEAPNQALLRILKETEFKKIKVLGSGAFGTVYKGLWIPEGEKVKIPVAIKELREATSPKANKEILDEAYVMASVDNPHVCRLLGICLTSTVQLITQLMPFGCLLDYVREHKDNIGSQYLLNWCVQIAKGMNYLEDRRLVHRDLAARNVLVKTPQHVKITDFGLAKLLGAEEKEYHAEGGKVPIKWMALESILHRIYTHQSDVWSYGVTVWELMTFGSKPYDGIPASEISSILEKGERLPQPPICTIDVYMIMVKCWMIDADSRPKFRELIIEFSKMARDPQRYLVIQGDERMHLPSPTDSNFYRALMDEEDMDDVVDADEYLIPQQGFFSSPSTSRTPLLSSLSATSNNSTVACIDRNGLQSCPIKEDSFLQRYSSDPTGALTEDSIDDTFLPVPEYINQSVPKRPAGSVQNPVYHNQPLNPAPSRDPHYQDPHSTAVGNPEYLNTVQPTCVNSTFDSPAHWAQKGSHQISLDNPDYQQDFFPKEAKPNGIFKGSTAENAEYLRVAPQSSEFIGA
von Hippel-Lindau disease tumor suppressor/Epidermal growth factor receptor (Homo sapiens), P00533+P40337 [UNDEFINED MUTATION], sequence (P40337 whole entry, looked up, stated change not applied): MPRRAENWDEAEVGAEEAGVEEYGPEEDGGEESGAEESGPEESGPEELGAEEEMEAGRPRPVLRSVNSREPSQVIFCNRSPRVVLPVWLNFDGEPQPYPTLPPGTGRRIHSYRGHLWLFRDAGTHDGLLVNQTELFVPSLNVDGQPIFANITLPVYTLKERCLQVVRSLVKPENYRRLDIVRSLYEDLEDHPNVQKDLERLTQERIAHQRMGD

Data set [2] addresses von Hippel-Lindau disease tumor suppressor/Epidermal growth factor receptor (Homo sapiens, UniProt P00533+P40337, L858R). The data set is described as follows: Protac activity at VHL/EGFR L858R mutant in human NCI-H3255 cells assessed as induction of protein degradation incubated for 24 hrs by immunoblotting analysis. It is filed as cell-based.
Data set [3] deals with T1, von Hippel-Lindau disease tumor suppressor/Epidermal growth factor receptor (Homo sapiens, UniProt P00533+P40337). Description: Protac activity at VHL/EGFR deletion19 mutant in human HCC827 cells assessed as induction of protein degradation incubated for 24 hrs by immunoblotting analysis. Type of data set: cell-based.
T1 sequence (P00533 25-1210 limits assumed, stated change not applied): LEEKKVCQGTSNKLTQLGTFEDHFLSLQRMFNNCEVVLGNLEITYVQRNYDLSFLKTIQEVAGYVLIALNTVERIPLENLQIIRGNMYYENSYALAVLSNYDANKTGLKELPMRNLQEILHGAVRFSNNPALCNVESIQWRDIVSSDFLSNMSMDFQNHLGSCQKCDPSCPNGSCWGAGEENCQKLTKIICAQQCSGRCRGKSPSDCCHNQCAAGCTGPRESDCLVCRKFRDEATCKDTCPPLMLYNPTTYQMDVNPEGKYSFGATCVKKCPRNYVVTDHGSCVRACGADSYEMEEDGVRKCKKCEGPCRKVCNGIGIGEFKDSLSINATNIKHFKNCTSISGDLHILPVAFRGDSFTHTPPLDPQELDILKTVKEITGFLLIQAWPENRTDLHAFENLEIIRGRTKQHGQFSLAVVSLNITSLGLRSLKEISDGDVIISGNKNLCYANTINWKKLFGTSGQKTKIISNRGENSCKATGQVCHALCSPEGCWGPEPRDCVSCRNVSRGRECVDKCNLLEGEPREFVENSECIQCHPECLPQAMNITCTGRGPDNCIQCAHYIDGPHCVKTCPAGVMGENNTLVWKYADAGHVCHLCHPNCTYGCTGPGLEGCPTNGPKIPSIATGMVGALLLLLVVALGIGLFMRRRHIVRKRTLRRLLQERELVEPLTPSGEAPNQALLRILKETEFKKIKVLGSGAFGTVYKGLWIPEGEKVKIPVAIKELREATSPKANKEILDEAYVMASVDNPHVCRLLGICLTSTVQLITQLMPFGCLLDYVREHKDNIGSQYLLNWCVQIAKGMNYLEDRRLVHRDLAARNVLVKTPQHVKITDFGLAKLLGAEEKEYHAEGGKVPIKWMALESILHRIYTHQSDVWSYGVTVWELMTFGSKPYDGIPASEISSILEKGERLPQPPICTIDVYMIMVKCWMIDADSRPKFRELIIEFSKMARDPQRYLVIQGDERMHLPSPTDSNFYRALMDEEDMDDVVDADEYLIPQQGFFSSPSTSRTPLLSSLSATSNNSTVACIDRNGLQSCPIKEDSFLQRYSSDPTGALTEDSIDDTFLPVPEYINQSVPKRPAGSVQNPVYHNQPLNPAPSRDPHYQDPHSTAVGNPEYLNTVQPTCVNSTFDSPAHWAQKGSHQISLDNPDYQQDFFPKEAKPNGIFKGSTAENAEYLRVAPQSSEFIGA
T1 sequence (P40337 whole entry, stated change not applied): as the sequence (P40337 whole entry, looked up, stated change not applied) above
For data set [4], the system named is von Hippel-Lindau disease tumor suppressor/Epidermal growth factor receptor (Homo sapiens), P00533+P40337 [L858R]. Description: Protac activity at VHL/EGFR L858R mutant in human NCI-H3255 cells assessed as induction of protein degradation by measuring maximal efficacy incubated for 24 hrs by immunoblotting analysis relative to control. It is filed as cell-based.

The subject of data set [5] is von Hippel-Lindau disease tumor suppressor/Epidermal growth factor receptor (Homo sapiens), P00533+P40337 [UNDEFINED MUTATION]. Description: Protac activity at VHL/EGFR deletion19 mutant in human HCC827 cells assessed as induction of protein degradation by measuring maximal efficacy relative to control. It is filed as cell-based.
Data set [6] concerns the target T1, von Hippel-Lindau disease tumor suppressor/Epidermal growth factor receptor. The data set is described as follows: Protac activity at VHL/EGFR deletion19 mutant in human HCC827 cells assessed as induction of protein degradation. Type of data set: cell-based.
For data set [7], the target named is T2, Protein cereblon/Epidermal growth factor receptor (Homo sapiens, UniProt P00533+Q96SW2). The data set is described as follows: Protac activity at CRBN/wild type EGFR in human A549 cells assessed as induction of EGFR degradation incubated for 48 hrs by Western blot analysis. It is filed as cell-based.
The target in data set [8] is T2, Protein cereblon/Epidermal growth factor receptor. The data set is described as follows: Protac activity at CRBN/wild type EGFR in human A549 cells assessed as induction of EGFR degradation at 100 nM measured after 72 hrs by Western blot analysis relative to control. It is filed as cell-based.
Data set [9] concerns Protein cereblon/Epidermal growth factor receptor (Homo sapiens), P00533+Q96SW2 [L858R,T790M]. The data set is described as follows: Protac activity at CRBN/EGFR L858R/T790M double mutant in mouse BaF3 cells assessed as induction of protein degradation at 0.1 uM measured after 24 hrs by Western blot analysis relative to control. It is filed as cell-based.
In data set [10] the test system is BaF3. Description: Antitumor activity against mouse BaF3 cells expressing EGFR deletion19/T790M/C797S triple mutant implanted in CDX BALB/c nude mouse model assessed as reduction in tumor volume at 40 mg/kg, po relative to control. Further details: scale not given: the % may be the effect or the level left. Type of data set: functional.
The nature of data set [11]: Oral bioavailability in mouse at 10 mg/kg. As to conditions: in vivo. Type of data set: ADME, organism-based.
Data set [12] has as its system BaF3. Description: Antitumor activity against mouse BaF3 cells expressing EGFR deletion19/T790M/C797S triple mutant implanted in […] BALB/c nude mouse model assessed as reduction in tumor volume at 40 mg/kg, po relative to control. It is filed as functional. Further details: scale not given: the % may be the effect or the level left.
Data set [13] concerns the target Epidermal growth factor receptor (Homo sapiens, UniProt P00533, T790M).
Data set [14] concerns the target Epidermal growth factor receptor (Homo sapiens, UniProt P00533). Description: Inhibition of wild type EGFR (unknown origin) preincubated for 5 mins followed by substrate and ATP addition and further incubated for 30 mins by HTRF assay. In general terms: Time-resolved FRET reads energy transfer from a long-lived donor to a nearby acceptor.

von Hippel-Lindau disease tumor suppressor/Epidermal growth factor receptor (Homo sapiens, UniProt P00533+P40337, L858R), sequence (P00533 25-1210 L858R limits assumed, stated change not applied): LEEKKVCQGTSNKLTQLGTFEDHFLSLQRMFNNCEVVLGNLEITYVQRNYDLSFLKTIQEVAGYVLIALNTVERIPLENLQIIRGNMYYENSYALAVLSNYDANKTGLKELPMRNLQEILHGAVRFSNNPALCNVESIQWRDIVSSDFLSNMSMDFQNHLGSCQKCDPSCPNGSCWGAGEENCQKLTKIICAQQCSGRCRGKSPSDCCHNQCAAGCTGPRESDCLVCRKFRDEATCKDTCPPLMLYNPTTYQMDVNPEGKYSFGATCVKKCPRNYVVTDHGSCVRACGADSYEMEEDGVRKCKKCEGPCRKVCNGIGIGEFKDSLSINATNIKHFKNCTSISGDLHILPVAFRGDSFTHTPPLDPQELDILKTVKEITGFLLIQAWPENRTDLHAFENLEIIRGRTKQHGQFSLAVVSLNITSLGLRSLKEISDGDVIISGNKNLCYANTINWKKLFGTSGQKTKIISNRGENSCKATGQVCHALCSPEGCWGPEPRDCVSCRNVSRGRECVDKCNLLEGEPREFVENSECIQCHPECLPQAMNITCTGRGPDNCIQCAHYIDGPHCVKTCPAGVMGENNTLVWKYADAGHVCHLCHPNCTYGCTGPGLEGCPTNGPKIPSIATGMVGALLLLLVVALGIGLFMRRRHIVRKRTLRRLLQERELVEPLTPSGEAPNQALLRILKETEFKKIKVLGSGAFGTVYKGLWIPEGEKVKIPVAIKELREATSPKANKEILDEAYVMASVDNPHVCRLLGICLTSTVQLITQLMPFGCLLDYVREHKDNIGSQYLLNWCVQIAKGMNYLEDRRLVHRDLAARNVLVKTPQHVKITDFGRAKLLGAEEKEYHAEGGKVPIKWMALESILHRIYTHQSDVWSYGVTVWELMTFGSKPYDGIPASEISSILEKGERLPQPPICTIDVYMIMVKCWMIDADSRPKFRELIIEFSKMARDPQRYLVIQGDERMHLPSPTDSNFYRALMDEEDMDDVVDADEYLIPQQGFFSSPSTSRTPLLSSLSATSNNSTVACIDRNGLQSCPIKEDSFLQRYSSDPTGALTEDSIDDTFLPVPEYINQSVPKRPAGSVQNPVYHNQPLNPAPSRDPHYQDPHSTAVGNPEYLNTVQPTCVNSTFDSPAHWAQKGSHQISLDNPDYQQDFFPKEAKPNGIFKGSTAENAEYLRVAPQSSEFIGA
von Hippel-Lindau disease tumor suppressor/Epidermal growth factor receptor (Homo sapiens, UniProt P00533+P40337, L858R), sequence (P40337 whole entry, stated change not applied): as the sequence (P40337 whole entry, looked up, stated change not applied) above

For the compound `COc1cc2ncnc(Nc3ccc(F)c(Cl)c3)c2cc1OCCCCCOCCOCCC(=O)N[C@H](C(=O)N1C[C@H](O)C[C@H]1C(=O)NCc1ccc(-c2scnc2C)cc1)C(C)(C)C`, the Emax stood at 98.9% in data set [1] and 96.6% in [4]. The concentration giving a half-maximal response (EC50) is 0.0223 µM in data set [2] and 0.0117 µM in [3].
Turning to `Cc1ncsc1-c1ccc(CNC(=O)[C@@H]2C[C@@H](O)CN2C[C@@H](NC(=O)CCCCCCCCCCn2cc(COc3cc4ncnc(Nc5ccc(F)c(Cl)c5)c4cc3NC(=O)/C=C/CN3CCCCC3)nn2)C(C)(C)C)cc1`, the Emax in [5] is 91%. For the same compound, the EC50 in [6] came out at 0.00357 µM.
As for `Cn1c(=O)c(C(=O)NNCCOCCOCC(=O)Nc2cccc3c2C(=O)N(C2CCC(=O)NC2=O)C3=O)nc2ccccc21` (centres undefined), the concentration giving a half-maximal response (EC50) in data set [7] came out at 0.0329 µM. Moreover, the Emax in [8] turned out to be 96%.
As to `O=C1CCC(N2C(=O)c3cccc(NCCOCCOCCOCCN4CCN(c5ccc(-c6ccc7c(c6)C(=O)N(C(C(=O)Nc6nccs6)c6ccccc6)C7)cn5)CC4)c3C2=O)C(=O)N1` (centres undefined), the Emax in data set [9] came out at 56%.
Turning to `COc1cc(N2CCC(N3CCN(CCC#Cc4cccc5c4CN(C4CCC(=O)NC4=O)C5=O)CC3)CC2)ccc1Nc1ncc(Cl)c(Nc2ccccc2P(C)(C)=O)n1` (centres undefined), the Activity in the data set with BaF3 [10] was determined as 84%; with BaF3 [12], 67%. Further, the bioavailability in [11] came to 62.8%.
On to `CN1C(=O)C(C(=O)NN)N(C)c2ccccc21` (centres undefined), for which the IC50 in data set [13] came to 4.02 µM; in data set [14], 0.1 µM.

The EC50 is the concentration at which the effect is half-maximal. The bioavailability is the share of a dose that reaches the circulation, judged against a reference dose that is usually intravenous. As usually defined, the IC50 is the concentration at which inhibition is half-maximal.
